Laboratory results published in patent US4254128A, “2-Adamantyl hydrazines and biocidal compositions thereof” (Teva Pharmaceutical Industries Ltd., priority 1977, dated 1981).
Where a name gives a salt, the structure may show the parent alone.

Columns and labels:
[1] = system: Leptospira canicola Kipod 146; test: Anti leptospiral activity (minimal inhibition concentration); type: cell-based; settings: for MIC: Leptospira interrogans, KIPOD146, 240 h; for anti leptospiral activity: summary in words
Experimental: The tests were carried out under the following conditions:
Leptospira: Leptospira canicola Kipod 146
Inoculum: 1-10^5 cells/ml
Incubation time: 10 days, 28° C.
Evaluation: Direct count in dark field microscopy after 4,7 and 10 days.
2 Minimal+0.5% albumin (Pentex)
3 Korthof rich medium with 8% serum.
4 Korthof rich medium with 2% serum.

[2] = system: L. tropica amastigotes; test: Anti leishmania test, amastigotes in peritoneal exudate cells in vitro; type: cell-based; settings: 37° C.
Experimental: (§1) a. amastigotes in peritoneal exudate cells in Mc Coy's medium in vitro at 37° C.
+++=clearance of all parasites in 24 hours
++=clearance of all parasites in 48 hours
+=clearance of all parasites in 72 hours
±=Partial clearance of parasites in 72 hours or more
-=No activity against parasites.

[3] = system: Leishmania; test: Anti leishmania tests, summary; type: cell-based, L. tropica; settings: summary in words
Experimental: as §1
b. promastigotes in Mc Coy's medium in vitro at 27° C.

[4] = system: Pythium; test: Antifungal activity in plants, growth on solid agar; type: cell-based; settings: read-out: inhibiting concentration
Experimental: (§2) Antiplant fungal activity was tested as follows:
(§3) Inhibition of growth on solid agar mixed with various concentrations of the tested compounds.

[5] = system: S. rolfsii; test: as above; type: cell-based; settings: Agroathelia rolfsii, read-out: inhibiting concentration
Experimental: as §2, §3

[6] = system: Sclerotinia; test: as above; type: cell-based; settings: read-out: inhibiting concentration
Experimental: as §2, §3

Row | MIC ([1]; Korthof + 2% serum) | MIC ([1]; Korthof + 8% serum) | MIC ([1]; minimal + Pentex (0.5% albumin)) | MIC ([1]; minimal medium) | Structure (SMILES) | anti leptospiral activity [1] | Leishmania amastigote activity score ([2]; 10 μg) | Leishmania amastigote activity score ([2]; 100 μg) | activity against Leishmania [3] | MIC [4] | MIC [5] | MIC [6]
1 | 12.5 µg/mL | 125 µg/mL | 6.25 µg/mL | 3.12 µg/mL | NNC1C2CC3CC(C2)CC1C3 (centres unmarked) [Example 18, 2-Adamantylhydrazine hydrochloride] | active | ++ (clearance of all parasites in 48 hours) | +++ (clearance of all parasites in 24 hours) | active | 50 µg/mL | 50 µg/mL | 50 µg/mL
2 |  | 6.25 µg/mL |  | 6.25 µg/mL | CN(NC1C2CC3CC(C2)CC1C3)c1cccc(C(F)(F)F)c1 (centres unmarked) [Example 29, 1-(2'-Adamantyl)-2-methyl-2-(m-trifluoromethylphenyl)hydrazine hydrochloride hemihydrate] | active |  |  |  | 50 µg/mL | 50 µg/mL | 50 µg/mL
